From paper PMC6609034, “Unraveling the role of the secretor antigen in human rotavirus attachment to histo-blood group antigens” (PLoS Pathogens, 2019) come the findings set out here.

Molecules are shown by their SMILES. pKd: −log10 of the molar value.

Assay [1] deals with Wa DLP (double-layered particles). Nature of the assay: ELISA-like glycan binding assay of rotavirus particles. Set-up: species or system human rotavirus. Particulars: DLP 10 to 0.078 μg/ml. From the text: (§1) African green monkey kidney epithelial cells (MA104 cell line; ATTC #CRL-2378.1) were used for the propagation of rotavirus Wa strain that belongs to the globally dominant human genotype G1P[8]. Briefly, ten MA104 cells confluent 150-cm^2 flasks (approximately 1.5 ×10^7 cells/flask) were infected with Wa strain at a multiplicity of infection (MOI) of ≤ 0.1 and processed as previously described. One hundred ml of medium with 1.5x10^8 virus/ml were obtained and the viral particles were concentrated by pelleting at 160,000 × g for 1 h at 4°C in a SW 41 rotor (Beckman). The viral pellet was resuspended in TNC buffer (20 mM Tris-HCl pH 8.0, 100 mM NaCl, 1 mM CaCl2) for triple-layered particles (TLP) or in TNE (20 mM Tris-HCl, pH 8.0, 100 mM NaCl, 1 mM EDTA) for double-layered particles (DLP).
(§2) An ELISA-like binding assay was employed to determine the binding ability of rotavirus TLP and DLP to the H type-1 antigen and to its precursor LNB. Streptavidin plates were coated with the biotinylated oligosaccharides as described above. After washing with PBS-T, two fold serial dilutions of TLPs and DLP were added to the plate (ranging from 10 μg/ml to 0.078 μg/ml). The TLP were always maintained in TNC-T (20 mM Tris, 100 mM NaCl, 1 mM CaCl2, 0.05% Tween 20, pH 7,4) buffer and the binding and washing steps were always carried out in this solution. DLPs assays were carried out in Tris-buffered saline buffer with Tween 20 (TBS-T, 20 mM Tris, 100 mM NaCl, 0.05% Tween 20, pH 7.4). TLP and DLP were incubated in the plate overnight at 4°C. After binding, the plates were washed three times in TNC-T (for TLP) or TBS-T (for DLP) with 0.05% Tween 20 (TNC-T and TBS-T), and a mouse anti-VP6 antibody was added at 1:100 in TNC-T or TBS-T and incubated 1 h at 37°C. The plates were then washed three times with TNC-T or TBS-T, and a HRP-conjugated anti-mouse IgG was added at 1:10.000 and incubated at 37°C for 1 h. […] Fluorescence units were recorded by a MultiScan microplate reader.
(In general: ELISA stands for enzyme-linked immunosorbent assay.)

Assay [2] deals with Wa TLP (triple-layered particles). Described as above. Also noted: species or system human rotavirus. Particulars: TLP 10 to 0.078 μg/ml.
Excerpt: as §1, §2

Assay [3] concerns VP8* P[8]. Nature of the assay: ELISA-like binding assay to biotinylated HBGAs. Set-up: species or system human rotavirus. Particulars: biotinylated PAA glycan 2 μg/ml, VP8* 10 μg/ml. From the text: A panel of biotinylated sugar antigens including Le^a, Le^b, Le^c (lacto-N-biose; LNB), H type-1, H type-2 and blood group A and B trisaccharides were purchased from Glyconz (Fig 1 and S1 Table). These glycans are biotinylated neoglyconjugates of a poly[N-(2-hydroxyethyl)acrylamide] (PAA) with a size from 30 to 50 KDa. This forms a flexible polymer ideal for a multivalent presentation of glycans. Immobilized streptavidin F96 black plates (Nunc) were coated with the biotinylated oligosaccharides (2 μg/ml) in milli-Q water and incubated during 1 hour at 37°C. After functionalization the plates were washed once with PBS containing 0.05% of Tween 20 (PBS-T) and the VP8* proteins were added (10 μg/ml) and incubated at 4°C overnight. After three washes with PBS-T, a rabbit polyclonal antibody anti GST (1:1,000) (Abcam) was added and the plates were incubated one hour at 37°C. Then, the plates were washed three times with PBS-T and incubated for 1 h at 37°C with 1:10,000 dilution of horseradish peroxidase (HRP)-conjugated goat anti-rabbit (Abcam). After three washes with PBS-T, the binding was detected using QuantaBlue reagent (ThermoFisher) kit, as recommended by the manufacturer. Fluorescence units were registered by a MultiScan microplate reader. All the binding assays were performed in triplicate.

Assay [4] deals with T1, P[8]c M4(Ile173Val) VP8* (Rotavirus A, UniProt A0A0S0VKY7, I110V).
T1 sequence (A0A0S0VKY7 1-161 I110V): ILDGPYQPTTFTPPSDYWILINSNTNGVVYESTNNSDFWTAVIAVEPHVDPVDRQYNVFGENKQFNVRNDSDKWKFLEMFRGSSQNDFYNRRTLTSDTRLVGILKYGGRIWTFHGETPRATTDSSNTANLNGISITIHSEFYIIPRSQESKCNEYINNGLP
Put plainly: SPR apparent affinity of VP8* for immobilized HBGAs. Format: binding, human rotavirus. Particulars: for pKd: PAA-biotin glycan immobilized on SA chip, VP8* as analyte, 10°C, ± standard deviation, read-out: Kda (apparent affinity constant). An excerpt: (§3) Selected residues in the GST::VP8* P[8] were replaced for alanine or valine according to the structural data of the LNB binding site. Four mutants (M1–M4) were constructed using a Quick-Change site-directed mutagenesis kit (Stratagene) and appropriate oligonucleotides (S5 Table), and the DNA changes were confirmed by DNA sequencing. Mutant M1, M2 and M3 contained changes in the codons for tryptophan 174, arginine 209 and glutamic 212 residues, respectively, that introduced an alanine at each position. Mutant M4 substituted isoleucine 173 by valine.
The affinity assays were based on SPR and performed in a Biacore T100 instrument (GE Healthcare). H1 PAA-biotin and LNB PAA-biotin were diluted to a concentration of 1 mg/ml in water and captured with streptavidin present in a SA sensor chip (GE Healthcare). H1 was immobilized in channel 2 (630 RU) of the sensor chip and LNB was immobilized in channel 4 (624 RU). The channels 1 and 3 were used as the reference surfaces for channels 2 and 4, respectively. The immobilization process was performed by conditioning the sensor chip surface with three consecutive 1-minute injections of 1 M NaCl 50 mM NaOH before biotinylated ligands were immobilized at a flow rate of 15 μl/min. The affinity assays of VP8* polypeptides to biotinylated sugars were performed at 10°C using 1X HBS-EP^+ buffer (0.01 M HEPES pH 7.4, 0.15 M NaCl, 3 mM EDTA, 0.005% Surfactant P20), a flow rate of 5 μl/min with 2700 seconds of contact time and a dissociation time of 1800 seconds. The regeneration step consisted in a wash step with 10 mM Glycine-HCl pH 2 for 20 seconds at the same flow rate. The assays were performed with purified VP8* at different concentrations (45; 137; 411; 1,234; 3,703; 11,111; 33,333; 100,000 and 200,000 nM). Each run included three blanks without sample. […] Since multivalent oligosaccharides are immobilized on a sensor chip surface, avidity and rebinding effects can take place and apparent affinity constants (Kda) are calculated with this experimental setup. […]

Assay [5] deals with P[8]c VP8* mutant E212A (M3). Put plainly: SPR binding of VP8* mutant. Set-up: species or system human rotavirus.
Excerpt: as §3
The affinity assays were based on SPR and performed in a Biacore T100 instrument (GE Healthcare). H1 PAA-biotin and LNB PAA-biotin were diluted to a concentration of 1 mg/ml in water and captured with streptavidin present in a SA sensor chip (GE Healthcare). H1 was immobilized in channel 2 (630 RU) of the sensor chip and LNB was immobilized in channel 4 (624 RU). The channels 1 and 3 were used as the reference surfaces for channels 2 and 4, respectively. The immobilization process was performed by conditioning the sensor chip surface with three consecutive 1-minute injections of 1 M NaCl 50 mM NaOH before biotinylated ligands were immobilized at a flow rate of 15 μl/min. The affinity assays of VP8* polypeptides to biotinylated sugars were performed at 10°C using 1X HBS-EP^+ buffer (0.01 M HEPES pH 7.4, 0.15 M NaCl, 3 mM EDTA, 0.005% Surfactant P20), a flow rate of 5 μl/min with 2700 seconds of contact time and a dissociation time of 1800 seconds. The regeneration step consisted in a wash step with 10 mM Glycine-HCl pH 2 for 20 seconds at the same flow rate. The assays were performed with purified VP8* at different concentrations (45; 137; 411; 1,234; 3,703; 11,111; 33,333; 100,000 and 200,000 nM). Each run included three blanks without sample. The affinity data were obtained after analysis of sensorgrams performed with the BIAevaluation 2.0 software (GE Healthcare). Since multivalent oligosaccharides are immobilized on a sensor chip surface, avidity and rebinding effects can take place and apparent affinity constants (Kda) are calculated with this experimental setup. Kda values were obtained from the steady-state kinetics experiment as the ligand concentration needed to achieve a half-maximum binding at equilibrium. The experiments were made in triplicate. Graphical representation of signal/concentration curves were plotted using GraphPad Prism 6 for MacOsX.

With `CC(=O)NC1C(O)OC(CO)C(O)C1OC1OC(CO)C(O)C(O)C1OC1OC(C)C(O)C(O)C1O` (stereo not drawn) [H1, Fuc-α1,2-Gal-β1,3-GlcNAc], the “binding of rotavirus particles (ELISA-like)” value in assay [1] is “not”; in assay [2], “able to bind”. In assay [3], the “binding (ELISA-like)” value is on record as “recognized”. In addition, in assay [4], the pKd is 4.41. Moreover, in assay [4] (higher than wild-type P[8]c), the “Kda of VP8 I173V compared to the wild-type protein” value was 1.4 fold. Moreover, the “binding by SPR” value in assay [5] is “lost their ability to interact”.
For `CC(=O)NC1C(O)OC(CO)C(O)C1OC1OC(CO)C(O)C(O)C1O` (stereo not drawn) [LNB, Gal-β1,3-GlcNAc], the “binding of rotavirus particles (ELISA-like)” value in assay [1] is “not”; in assay [2], “able to bind”. The “binding (ELISA-like)” value in assay [3] is listed as “recognize”. In addition, the pKd in assay [4] is 4.31. Further, the “binding by SPR” value in assay [5] is given as “lost their ability to interact”.
